Laboratory results from patent publication US4490527A, “Benzo-fused heterocyclic anti-ulcer agents” (American Home Products Corporation, priority 1983, dated 1984).
Counter-ions that a name gives are not always drawn. Like-named read-outs stand apart in the source and are kept apart here.

Key:
H2 histamine receptors = H2 histamine receptors (Cavia porcellus, UniProt P47747); assay: cell-based; design: species or system guinea pig; details: vs histamine dose-response, 32° C., pH 7.4
Protocol: The guinea pig heart atrium test is carried out as follows:
A guinea pig right atrium is suspended at 1 g. tension (isometric) in a thermostatically controlled (32° C.) tissue bath (10 ml) containing oxygenated (95% O2 ; 5% CO2) Krebs-Haenseleit buffer (pH 7.4). The tissue is allowed to stabilize over 1 hour. Individual contractions are recorded with a force-displacement transducer through a strain gauge coupler. A control dose-response curve to histamine in the above described tissue bath is obtained after which the tissue is washed 3 times and allowed to re-equilibrate to basal rate. The test compound is added to the tissue bath at the desired final concentration. Thirty minutes after addition of the compound, a fresh histamine dose response curve is again obtained. Then the response to histamine in the presence of antagonist is compared to the histamine control response. This procedure is repeated, using fresh tissues, for each concentration of antagonist tested. […] Cimetidine is used as the standard for this test.

gastric acid secretion = assay: gastric secretion in the rat, modified Shay procedure of pylorus ligation; type: in vivo; details: intraduodenal, 4 h, i.d., four hours after ligation, read-out: % Inhibition (of acid output)
Protocol: The procedure for testing gastric secretion in the rat, a modification of the procedure of Shay et al., Gastroenterology, 26, 906-13 (1954) is carried out as follows: Male Charles River rats weighing 200-300 grams are deprived of food but not water for 24 hours prior to use. Water is, however, withheld during the experiment. The rats are weighed, anesthetized, and the pylorus ligated according to the method of Shay et al. Treatment or vehicle control is then administered interduodenally (i.d.). Rats are housed 2/cage and sacrificed with CO2 four hours after ligation. The stomachs are removed, rinsed, and contents emptied into a graduated centrifuge tube. The tubes are centrifuged for 20 minutes at 2,000 RPM and the volume of gastric juice recorded. Any samples obviously contaminated by feces, food or hemolysis are eliminated. An aliquot of each is frozen for later analysis of Na^+, K^+ and Cl^- concentration. The pH is measured and 1 ml. of gastric juice is titrated with 0.1N NaOH to a pH of 7.0-7.4. Titratable acid output is calculated in microequivalents and the percent inhibition of acid output is calculated as follows: [formula]

[1] = 30 min after addition, results of three experiments, read-out: pA2 Value (apparent dissociation constant of the H2 antagonist) (converted)
[2] = 30 min after addition, results of three experiments
[3] = marked *, result of only one experiment, read-out: KB value

Sequence of H2 histamine receptors (P47747 whole entry): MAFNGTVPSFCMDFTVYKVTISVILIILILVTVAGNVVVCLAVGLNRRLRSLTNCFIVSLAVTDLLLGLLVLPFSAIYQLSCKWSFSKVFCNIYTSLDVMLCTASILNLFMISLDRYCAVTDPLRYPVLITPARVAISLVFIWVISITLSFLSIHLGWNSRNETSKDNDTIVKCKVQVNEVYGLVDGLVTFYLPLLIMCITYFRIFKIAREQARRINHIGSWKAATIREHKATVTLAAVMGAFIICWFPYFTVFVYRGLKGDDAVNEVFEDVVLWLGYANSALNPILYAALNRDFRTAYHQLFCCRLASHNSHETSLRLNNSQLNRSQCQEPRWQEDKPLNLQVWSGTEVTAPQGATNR

Molecule `O=S1(=O)N=C(NCCCOc2cccc(CN3CCCCC3)c2)c2ccccc21` [Example 2, N-[3-[3-[(1-piperidinyl)methyl]phenoxy]propyl]-1,2-benzisothiazol-3-amine 1,1-dioxide] has a Kb (H2 histamine receptors; [1]) of 7.94 nM.
`NC(N)=Nc1nc(CSCCNC2=NS(=O)(=O)c3ccccc32)cs1` [Example 3, [4-[[[2-[(1,2-benzisothiazol-3yl)amino]ethyl]thio]methyl]-2-thiazolyl]guanidine S',S'-dioxide] showed a Kb (H2 histamine receptors; [1]) of 2 nM.
With `O=C1N=C(NCCCOc2cccc(CN3CCCCC3)c2)c2ccccc21` [Example 4, 3-[[3-[3-[(1-piperidinyl)methyl]phenoxy]propyl]amino]-1H isoindol-1-one, dihydrochloride, quarter hydrate] the Kb (H2 histamine receptors; [1]) was 251 nM.
Molecule `O=[N+]([O-])c1ccc2c(c1)S(=O)(=O)N=C2NCCCOc1cccc(CN2CCCCC2)c1` [Example 5, N-[3-[3-[(1-piperidinyl)methyl]phenoxy]propyl]-6-nitro-1,2-benzisothiazol-3-amine 1,1-dioxide, hydrochloride] has a Kb (H2 histamine receptors; [1]) of 50.1 nM.
Work on `Nc1ccc2c(c1)S(=O)(=O)N=C2NCCCOc1cccc(CN2CCCCC2)c1` [Example 6, N-[3-[3-[(1-piperidinyl)methyl]phenoxy]propyl]-6-amino-1,2-benzisothiazol-3-amine 1,1-dioxide] yielded a Kb (H2 histamine receptors; [1]) of 20 nM.
In the case of `O=S1(=O)N=C(NCCCOc2cccc(CN3CCCCC3)c2)c2ccc(Cl)cc21` [Example 7, N-[3-[3-[(1-piperidinyl)methyl]phenoxy]propyl]-6-chloro-1,2-benzisothiazol-3-amine 1,1-dioxide, hydrochloride salt hemihydrate], the Kb (H2 histamine receptors; [1]) is reported as 31.6 nM.
For `O=S1(=O)N=C(NCCCOc2cccc(CN3CCCCC3)c2)c2ccc(F)cc21` [Example 8, N-[3-[3-[(1-piperidinyl)methyl]phenoxy]propyl]-6-fluoro-1,2-benzisothiazol-3-amine 1,1-dioxide], the Kb (H2 histamine receptors; [1]) was 20 nM.
`O=S1(=O)N=C(NCCCOc2cccc(CN3CCCCC3)c2)c2cc(Cl)c(Cl)cc21` [Example 9, N-[3-[3-[(1-piperidinyl)methyl]phenoxy]propyl]-5,6-dichloro-1,2-benzisothiazol-3-amine 1,1-dioxide, monohydrochloride salt] was tested, and the “pA2 Value (apparent dissociation constant of the H2 antagonist)” value (“pA2 Value” for short) (H2 histamine receptors; [2]) was 6.7.
`Cc1ccc2c(c1)C(NCCCOc1cccc(CN3CCCCC3)c1)=NS2(=O)=O` [Example 10, N-[3-[3-[(1-piperidinyl)methyl]phenoxy]propyl]-5-methyl-1,2-benzisothiazol-3-amine 1,1-dioxide] gave a Kb (H2 histamine receptors; [1]) of 50.1 nM.
Molecule `O=S1(=O)N=C(NCCCOc2cccc(CN3CCCCC3)c2)c2cc(Cl)ccc21` [Example 11, N-[3-[3-[(1-piperidinyl)methyl]phenoxy]propyl]-5-chloro-1,2-benzisothiazol-3-amine 1,1-dioxide, hydrochloride] has a Kb (H2 histamine receptors; [1]) of 79.4 nM.
In the case of `COc1ccc2c(c1)C(NCCCOc1cccc(CN3CCCCC3)c1)=NS2(=O)=O` [Example 12, N-[3-[3-[(1-piperidinyl)methyl]phenoxy]propyl]-5-methoxy-1,2-benzisothiazol-3-amine 1,1-dioxide, 2/3 oxalate, ethanolate], the “pA2 Value” value (H2 histamine receptors; [2]) is reported as 8.0.
`O=S1(=O)N=C(NCCCOc2cccc(CN3CCOCC3)c2)c2ccccc21` [Example 16, N-[3-[3-(4-morpholinylmethyl)phenoxy]propyl]-1,2-benzisothiazol-3-amine 1,1-dioxide, hydrochloride] was tested, and the inhibition in vivo at 32 mg/kg (gastric acid secretion) was 39% and the “pA2 Value” value (H2 histamine receptors; [2]) was < 7.0.
With `CCN(CC)Cc1cccc(OCCCNC2=NS(=O)(=O)c3ccccc32)c1` [Example 19, N-[3-[3-[(diethylamino)methyl]phenoxy]propyl]-1,2-benzisothiazol-3-amine 1 ,1-dioxide, hydrochloride] the inhibition in vivo at 16 mg/kg (gastric acid secretion) was 52%, the inhibition in vivo at 32 mg/kg (gastric acid secretion) was 78% and the Kb (H2 histamine receptors; [1]) was 200 nM.
`CN(C)Cc1cccc(OCCCNC2=NS(=O)(=O)c3ccccc32)c1` [Example 21, N-[3-[3-[(dimethylamino)methyl]phenoxy]propyl]-1,2-benzisothiazol-3-amine 1,1-dioxide, hydrochloride, hemihydrate] was tested, and the inhibition in vivo at 32 mg/kg (gastric acid secretion) was 72% and the Kb (H2 histamine receptors; [1]) was 79.4 nM.
In the case of `CCCCN(CCCC)Cc1cccc(OCCCNC2=NS(=O)(=O)c3ccccc32)c1` [Example 22, N-[3-[3-[(dibutylamino)methyl]phenoxy]propyl]-1,2-benzisothiazol-3-amine 1 ,1-dioxide, hydrochloride, hemihydrate], the inhibition in vivo at 4 mg/kg (gastric acid secretion) is reported as 42%, the inhibition in vivo at 8 mg/kg (gastric acid secretion; Dose 8 mg/kg) is reported as 62% and the inhibition in vivo at 16 mg/kg (gastric acid secretion) is reported as 53%. The inhibition in vivo at 32 mg/kg (gastric acid secretion) was 68% and the Kb (H2 histamine receptors; [1]) was 6.31 nM.
`O=S1(=O)N=C(NCCCOc2cccc(CN3CCSCC3)c2)c2ccccc21` [Example 23, N-[3-[3-[(4-thiomorpholinyl)methyl]phenoxy]propyl]-1,2-benzisothiazol-3-amine 1,1-dioxide, hydrochloride] showed a Kb (H2 histamine receptors; [1]) of 25.1 nM.
Molecule `O=S1(=O)N=C(NCCCOc2cccc(CN3CCSC3)c2)c2ccccc21` [Example 25, N-[3-[3-[(3-thiazolidinyl)methyl]phenoxy]propyl]-1,2-benzisothiazol-3-amine 1,1-dioxide, hydrochloride] has an inhibition in vivo at 4 mg/kg (gastric acid secretion) of 48% and a Kb (H2 histamine receptors; [1]) of 40.7 nM.
Molecule `O=S1(=O)N=C(NCCCOc2cccc(CN3CCCCCCC3)c2)c2ccccc21` [Example 26, N-[3-[3-[(octahydro-1(2H)-azocinyl)methyl]phenoxy]-propyl]-1,2-benzisothiazol-3-amine 1,1-dioxide, hydrochloride] has a Kb (H2 histamine receptors; [1]) of 20 nM.
In the case of `O=S1(=O)N=C(NCCCOc2cccc(CNC3CCCCC3)c2)c2ccccc21` [Example 27, N-[3-[3-[(cyclohexylamino)methyl]phenoxy]propyl]-1,2-benzisothiazol-3-amine 1,1-dioxide, hydrochloride], the Kb (H2 histamine receptors; [1]) is reported as 44.7 nM.
Molecule `O=S1(=O)N=C(NCCCOc2cccc(CNC3CCCC3)c2)c2ccccc21` [Example 28, N-[3-[3-[(cyclopentylamino)methyl]phenoxy]propyl]-1,2-benzisothiazol-3-amine 1,1-dioxide, hydrochloride] has an inhibition in vivo at 16 mg/kg (gastric acid secretion) of 75%, an inhibition in vivo at 32 mg/kg (gastric acid secretion) of 49% and a Kb (H2 histamine receptors; [1]) of 25.1 nM.
Molecule `O=S1(=O)N=C(NCCCOc2cccc(CNCc3ccco3)c2)c2ccccc21` [Example 29, N-[3-[3-[[[(2-furanyl)methyl]amino]methyl]phenoxy]-propyl]-1,2-benzisothiazol-3amine 1,1-dioxide, hydrochloride] has an inhibition in vivo at 32 mg/kg (gastric acid secretion) of 50% and a Kb (H2 histamine receptors; [1]) of 69.2 nM.
`O=S1(=O)N=C(NCCCOc2cccc(CNCc3ccccc3)c2)c2ccccc21` [Example 30, N-[3-[3-[(benzylamino)methyl]phenoxy]propyl]-1,2-benzisothiazol-3-amine1,1-dioxide, hydrochloride, quarter hydrate] gave a Kb (H2 histamine receptors; [1]) of 63.1 nM.
For `CC(C)CN(Cc1cccc(OCCCNC2=NS(=O)(=O)c3ccccc32)c1)CC(C)C` [Example 31, N-[3-[3-[[bis(2-methylpropyl)amino]methyl]phenoxy]-propyl]-1,2-benzisothiazol-3-amine 1,1-dioxide], the Kb (H2 histamine receptors; [1]) was 63.1 nM.
With `CCCCNCc1cccc(OCCCNC2=NS(=O)(=O)c3ccccc32)c1` [Example 32, N-[3-[3-[(butylamino)methyl]phenoxy]propyl]-1,2-benzisothiazol-3-amine 1,1-dioxide, hydrochloride, hemihydrate] the Kb (H2 histamine receptors; [1]) was 63.1 nM.
For `CCCCCN(C)Cc1cccc(OCCCNC2=NS(=O)(=O)c3ccccc32)c1` [Example 34, N-[3-[3-[(methylpentylamino)methyl]phenoxy]propyl]-1,2-benzisothiazol-3-amine 1,1-dioxide], the Kb (H2 histamine receptors; [1]) was 10 nM.
`CCCCN(CCC)Cc1cccc(OCCCNC2=NS(=O)(=O)c3ccccc32)c1` [Example 35, N-[3-[3-[(butylpropylamino)methyl]phenoxy]propyl]-1,2-benzisothiazol-3-amine 1,1-dioxide] showed an inhibition in vivo at 32 mg/kg (gastric acid secretion) of 55% and a Kb (H2 histamine receptors; [3]) of 14 nM.
`CCCCN(C)Cc1cccc(OCCCNC2=NS(=O)(=O)c3ccccc32)c1` [Example 36, N-[3-[3-[(butylmethylamino)methyl]phenoxy]propyl]-1,2-benzisothiazol-3-amine 1,1-dioxide] was tested, and the inhibition in vivo at 32 mg/kg (gastric acid secretion) was 84% and the Kb (H2 histamine receptors; [3]) was 48 nM.
`CCCCCN(CCCCC)Cc1cccc(OCCCNC2=NS(=O)(=O)c3ccccc32)c1` [Example 37, N-[3-[3-[(dipentylamino)methyl]phenoxy]propyl]-1,2-benzisothiazol-3-amine 1,1-dioxide] gave an inhibition in vivo at 32 mg/kg (gastric acid secretion) of 38%.
With `CN(C)Cc1ccc(CSCCNC2=NS(=O)(=O)c3cscc32)o1` [Example 39, N-[2-[[[5-[(Dimethylamino)Methyl]-2-Furanyl]Methyl]Thio]Ethyl]Thieno[3,4-d]Isothiazol-3-Amine-1,1-Dioxide] the inhibition in vivo at 16 mg/kg (gastric acid secretion) was 87% and the Kb (H2 histamine receptors; [3]) was 1 nM.
`NC(N)=Nc1nc(CSCCNC2=NS(=O)(=O)c3cscc32)cs1` [Example 40, [4-[[[2-[(Thieno[3,4-d]Isothiazol-3-yl)Amino]Ethyl]Thio]Methyl]-2-Thiazolyl]Guanidine-S',S'-Dioxide] showed a Kb (H2 histamine receptors; [3]) of 100 nM.
`CNC(=NC#N)NCCSCc1csc(N=C(N)N)n1` [tiotidine, reference compound] gave an inhibition in vivo at 4 mg/kg (gastric acid secretion) of 16%.
